# Reference: ChEMBL document CHEMBL1201862, “PubChem BioAssay data set” (2004)
# Active and inactive are the calls of the source.
# Tests used:
# [1] = intracellular Trypanosoma cruzi inhibitors in host cells – cell-based, plate reader, cherry-pick samples, set 3, dose response (AID 651818); type: functional;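 also: compounds incubated with infected cells for about four days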
# [2] = biological target: T1, Microphthalmia-associated transcription factor (Homo sapiens, UniProt O75030); assay: TRPM1 promoter luciferase signal decrease, dose response, MITF inhibitor project, cell-based, SK-MEL-5, cherry-picked, set 3 (AID 493073); type: functional
# T1 sequence (O75030 whole entry): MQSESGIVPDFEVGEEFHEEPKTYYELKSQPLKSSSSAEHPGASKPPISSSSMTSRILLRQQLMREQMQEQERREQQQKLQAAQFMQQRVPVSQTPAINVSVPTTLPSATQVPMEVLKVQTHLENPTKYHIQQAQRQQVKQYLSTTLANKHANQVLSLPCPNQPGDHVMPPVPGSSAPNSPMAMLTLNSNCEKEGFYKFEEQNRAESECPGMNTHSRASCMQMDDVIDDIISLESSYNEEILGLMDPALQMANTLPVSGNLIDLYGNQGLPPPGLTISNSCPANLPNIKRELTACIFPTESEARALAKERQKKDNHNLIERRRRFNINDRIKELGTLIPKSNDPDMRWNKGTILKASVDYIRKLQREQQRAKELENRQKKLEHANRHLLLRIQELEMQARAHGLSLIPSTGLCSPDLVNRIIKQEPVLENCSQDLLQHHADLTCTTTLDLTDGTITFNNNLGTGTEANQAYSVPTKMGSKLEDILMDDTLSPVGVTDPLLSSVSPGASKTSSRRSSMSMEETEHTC
# [3] = P. falciparum Dd2 growth inhibitors, dose response, SYBR Green, cherry-picked samples (AID 1159567); type: functional, cell-based
# [4] = HepG2 cell cytotoxicity, dose response, cytotoxicity control, cherry-picked samples (AID 1159577); type: functional, cell-based
# [5] = biological target: T2, DNA repair protein RAD52 homolog (Homo sapiens, UniProt P43351); type: functional, biochemical
# T2 sequence (P43351 whole entry): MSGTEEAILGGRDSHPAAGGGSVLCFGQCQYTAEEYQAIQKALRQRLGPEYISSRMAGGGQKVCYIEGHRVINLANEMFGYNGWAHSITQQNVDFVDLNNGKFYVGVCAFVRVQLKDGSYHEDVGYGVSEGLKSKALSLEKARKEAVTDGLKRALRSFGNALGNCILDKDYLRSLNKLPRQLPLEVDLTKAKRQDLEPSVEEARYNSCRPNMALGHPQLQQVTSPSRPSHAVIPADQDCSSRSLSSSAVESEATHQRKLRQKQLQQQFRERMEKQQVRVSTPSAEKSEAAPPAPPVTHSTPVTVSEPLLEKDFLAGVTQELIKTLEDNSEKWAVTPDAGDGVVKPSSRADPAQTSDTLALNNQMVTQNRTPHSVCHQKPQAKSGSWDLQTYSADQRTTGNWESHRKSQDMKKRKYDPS
# [6] = biological target: Paired box protein Pax-8 (Homo sapiens, UniProt Q06710); assay: inhibitors of PAX8-driven TPO luciferase reporter, dose response, RMG-I cells, cherry-pick (AID 687027); type: functional, cell-based;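 also: luciferase reporter driven by Pax8 target thyroperoxidase promoter measured by SteadyGlo luminescence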
# Chain of Paired box protein Pax-8 (Q06710 whole entry): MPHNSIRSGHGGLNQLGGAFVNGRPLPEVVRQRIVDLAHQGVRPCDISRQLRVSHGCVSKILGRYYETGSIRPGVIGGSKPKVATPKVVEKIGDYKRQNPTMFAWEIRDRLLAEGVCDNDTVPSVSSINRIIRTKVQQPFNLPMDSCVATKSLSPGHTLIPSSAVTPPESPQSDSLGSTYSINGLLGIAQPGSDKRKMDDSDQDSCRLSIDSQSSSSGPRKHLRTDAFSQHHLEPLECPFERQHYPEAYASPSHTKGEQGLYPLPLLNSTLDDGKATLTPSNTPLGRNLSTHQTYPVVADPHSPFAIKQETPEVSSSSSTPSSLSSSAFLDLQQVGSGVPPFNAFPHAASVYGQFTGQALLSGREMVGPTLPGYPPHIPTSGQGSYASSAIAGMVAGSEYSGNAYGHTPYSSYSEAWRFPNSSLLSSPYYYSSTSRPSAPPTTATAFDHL
# [7] = NIH:OVCAR-3 ovarian cancer cell cytotoxicity, dose response, PAX8 inhibitor project, plate reader, dry powder samples (AID 743044); type: functional, cell-based
# [8] = biological target: Luciferin 4-monooxygenase (Photinus pyralis, UniProt P08659); assay: firefly luciferase enzyme inhibitors, dose response, biochemical, luminescence (AID 1891)
# Chain of Luciferin 4-monooxygenase (P08659 whole entry): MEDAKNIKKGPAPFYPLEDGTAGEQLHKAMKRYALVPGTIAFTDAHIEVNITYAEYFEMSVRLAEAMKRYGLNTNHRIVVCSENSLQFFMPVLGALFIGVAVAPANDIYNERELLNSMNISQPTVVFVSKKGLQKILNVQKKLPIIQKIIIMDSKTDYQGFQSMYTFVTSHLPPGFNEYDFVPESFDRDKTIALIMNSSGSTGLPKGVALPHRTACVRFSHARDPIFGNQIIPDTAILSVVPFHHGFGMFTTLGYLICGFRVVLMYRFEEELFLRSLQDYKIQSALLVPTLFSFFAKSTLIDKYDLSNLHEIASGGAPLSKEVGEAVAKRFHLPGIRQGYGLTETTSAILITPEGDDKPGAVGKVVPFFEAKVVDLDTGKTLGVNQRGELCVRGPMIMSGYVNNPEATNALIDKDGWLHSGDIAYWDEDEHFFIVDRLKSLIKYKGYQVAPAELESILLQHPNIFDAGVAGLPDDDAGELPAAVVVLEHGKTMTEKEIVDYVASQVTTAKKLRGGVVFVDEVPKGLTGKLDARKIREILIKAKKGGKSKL
# [9] = Luminescence Cell-Based Dose Confirmation HTS to Identify Inhibitors of Platelet Dense Granule Release. [Related pubchem assays: 1663 (Primary HTS), 1678 (Summary of Project)]; type: functional
# [10] = biological target: Nonstructural protein 1 (Influenza A virus, UniProt Q194T2); type: functional, Influenza A virus (A/California/07/2009(H1N1))
# Chain of Nonstructural protein 1 (Q194T2 whole entry): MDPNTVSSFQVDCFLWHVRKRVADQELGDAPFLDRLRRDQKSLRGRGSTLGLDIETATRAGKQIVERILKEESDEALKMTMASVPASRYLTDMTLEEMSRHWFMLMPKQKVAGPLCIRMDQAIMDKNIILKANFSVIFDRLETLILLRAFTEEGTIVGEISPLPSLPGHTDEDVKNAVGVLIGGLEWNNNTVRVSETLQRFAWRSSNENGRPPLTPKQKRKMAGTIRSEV
# [11] = test system: INS1; assay: beta cell apoptosis inhibitors, cytokine rescue, dose response, luminescence, retest (AID 449756); type: functional, cell-based; conditions: Rattus norvegicus;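 also: cell death triggered by IL-1 beta plus TNF-alpha plus IFN-gamma mixture; protective hits raise ATP signal compared with cytokine alone wells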
# [12] = biological target: T3, Short transient receptor potential channel 4 (Mus musculus, UniProt Q9QUQ5); assay: mouse TRPC4 channel activators, dose response, cell-based, HEK293 TRPC4/mu-opioid, Fluo-4 calcium (AID 434937); type: functional
# T3 sequence (Q9QUQ5 whole entry): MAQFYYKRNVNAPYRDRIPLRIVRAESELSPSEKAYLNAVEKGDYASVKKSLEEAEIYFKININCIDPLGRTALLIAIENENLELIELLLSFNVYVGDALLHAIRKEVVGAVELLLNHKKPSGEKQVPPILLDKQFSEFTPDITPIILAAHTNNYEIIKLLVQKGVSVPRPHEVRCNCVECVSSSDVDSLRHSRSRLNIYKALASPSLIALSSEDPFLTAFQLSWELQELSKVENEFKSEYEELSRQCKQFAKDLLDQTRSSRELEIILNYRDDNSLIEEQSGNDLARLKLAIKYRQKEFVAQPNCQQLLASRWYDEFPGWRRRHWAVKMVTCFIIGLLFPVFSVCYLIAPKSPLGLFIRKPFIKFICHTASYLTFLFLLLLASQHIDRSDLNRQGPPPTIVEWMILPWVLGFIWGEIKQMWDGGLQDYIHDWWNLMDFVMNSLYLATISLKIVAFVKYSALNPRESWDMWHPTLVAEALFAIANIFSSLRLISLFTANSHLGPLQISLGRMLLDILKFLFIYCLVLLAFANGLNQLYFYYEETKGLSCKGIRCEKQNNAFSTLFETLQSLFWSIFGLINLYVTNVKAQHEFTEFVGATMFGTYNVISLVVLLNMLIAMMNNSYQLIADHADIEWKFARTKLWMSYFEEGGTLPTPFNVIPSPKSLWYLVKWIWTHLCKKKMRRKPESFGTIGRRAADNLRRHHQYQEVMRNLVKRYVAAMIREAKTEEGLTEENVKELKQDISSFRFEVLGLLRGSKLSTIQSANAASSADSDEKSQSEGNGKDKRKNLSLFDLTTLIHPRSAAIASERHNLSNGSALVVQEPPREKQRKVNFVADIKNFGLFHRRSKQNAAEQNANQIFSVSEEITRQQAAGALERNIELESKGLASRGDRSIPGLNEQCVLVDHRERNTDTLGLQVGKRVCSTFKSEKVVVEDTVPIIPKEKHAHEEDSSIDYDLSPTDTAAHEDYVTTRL
# [13] = biological target: T4, Ubiquitin-conjugating enzyme E2 N (Homo sapiens, UniProt P61088); type: functional;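 also: Dose-response confirmation in a TR-FRET assay detecting UBC13-driven polyubiquitin chain formation, inhibition measured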
# T4 sequence (P61088 whole entry): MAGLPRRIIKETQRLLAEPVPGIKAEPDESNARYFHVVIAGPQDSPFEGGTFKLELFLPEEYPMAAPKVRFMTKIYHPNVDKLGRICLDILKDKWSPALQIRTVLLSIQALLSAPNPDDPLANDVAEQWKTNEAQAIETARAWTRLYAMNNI
# [14] = microbe, parasite or virus in culture; type: functional; conditions: Mycobacterium tuberculosis
# [15] = inhibitors of firefly luciferase expression or activity, dose response, H4 neuroglioma cells, luminescence (AID 1990); type: functional, cell-based
# [16] = Luminescence Cell-Based Dose Response HTS to Identify Inhibitors of 5'UTR Stem-Loop Driven Prion Protein mRNA Translation in H4 Neuroglioblastoma Cells. [Related pubchem assays: 1827 (Project Summary), 1813 (Primary HTS)]; type: functional
# [17] = inhibitors of SNCA 5'UTR-driven reporter translation, confirmation, H4 neuroglioma cells, luminescence (AID 1988); type: functional, cell-based
# [18] = P. falciparum 3D7-ScDHODH growth inhibitors, dose response, SYBR Green, dry powder samples (AID 1159570); type: functional, cell-based;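 also: parasite growth measured after 72 hours of compound exposure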
# [19] = HepG2 cell cytotoxicity, dose response, cytotoxicity control, plate reader, dry powder samples (AID 1159569); type: functional, cell-based;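 also: inhibitor potency with signal falling toward the positive control level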
# [20] = P. falciparum Dd2 growth inhibitors, dose response, SYBR Green, dry powder samples (AID 1159566); type: functional, cell-based;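 also: potency for growth inhibition with lower SYBR green DNA signal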
# [21] = P. falciparum ATP4 D1247Y mutant growth inhibitors, dose response, NITD609-resistant line, SYBR Green, dry powder (AID 1159571); type: functional, cell-based;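 also: parasites synchronized at ring stage by sorbitol before testing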
# [22] = biological target: Cytochrome P450 2D6 (Homo sapiens, UniProt P10635);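 also: CYP2D6 member of a cytochrome P450 panel assay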
# Chain of Cytochrome P450 2D6 (P10635 whole entry): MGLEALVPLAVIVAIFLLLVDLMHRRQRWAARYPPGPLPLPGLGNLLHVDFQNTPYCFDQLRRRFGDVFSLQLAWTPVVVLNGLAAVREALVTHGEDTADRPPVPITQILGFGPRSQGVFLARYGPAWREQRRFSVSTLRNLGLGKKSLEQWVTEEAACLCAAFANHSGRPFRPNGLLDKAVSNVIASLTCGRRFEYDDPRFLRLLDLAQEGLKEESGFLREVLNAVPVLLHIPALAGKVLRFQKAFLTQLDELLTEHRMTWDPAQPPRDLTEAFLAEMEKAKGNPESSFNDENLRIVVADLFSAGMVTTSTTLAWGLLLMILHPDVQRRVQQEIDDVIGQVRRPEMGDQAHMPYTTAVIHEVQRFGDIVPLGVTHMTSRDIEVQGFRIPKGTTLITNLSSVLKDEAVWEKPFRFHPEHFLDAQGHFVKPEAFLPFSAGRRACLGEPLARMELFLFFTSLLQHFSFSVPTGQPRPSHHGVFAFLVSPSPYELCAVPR
# [23] = biological target: Induced myeloid leukemia cell differentiation protein Mcl-1 (Homo sapiens, UniProt Q07820); type: functional
# Chain of Induced myeloid leukemia cell differentiation protein Mcl-1 (Q07820 whole entry): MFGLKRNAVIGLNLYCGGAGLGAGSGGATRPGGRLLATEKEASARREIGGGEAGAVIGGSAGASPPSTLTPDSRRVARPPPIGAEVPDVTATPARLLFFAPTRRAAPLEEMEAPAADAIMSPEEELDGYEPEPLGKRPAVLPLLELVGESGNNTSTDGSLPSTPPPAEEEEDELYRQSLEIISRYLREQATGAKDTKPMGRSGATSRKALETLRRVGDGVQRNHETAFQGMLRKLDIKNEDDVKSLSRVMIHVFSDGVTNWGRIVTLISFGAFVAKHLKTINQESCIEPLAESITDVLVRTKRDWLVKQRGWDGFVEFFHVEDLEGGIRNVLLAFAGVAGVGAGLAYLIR
# [24] = inhibitors of intracellular T. cruzi replication, confirmation, NIH3T3 host cells, beta-gal luminescence (AID 2044); type: functional, cell-based;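 also: intracellular parasites grown in NIH/3T3 mouse fibroblasts as host cells; luminescent beta-galactosidase reporter signal from transgenic T. cruzi replicating inside host cells; inhibitors lower the luminescence signal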
# [25] = cytotoxicity toward NIH3T3 fibroblasts, dose response, counter-screen, cell-based, ATP luminescence, mouse fibroblasts (AID 2010); type: functional;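 also: cells exposed to compound for about 90 hours before reading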
smiles,measurement,setting,value
C[C@@H]1CN([C@H](C)CO)C(=O)c2cccc(NC(=O)CCCCCC(=O)Nc3ccccc3N)c2O[C@@H]1CN(C)Cc1ccc(-c2ccccc2)cc1,AC50,[1],4.22 µM (active)
S=C=Nc1cccc(C2(N3CCCCC3)CCCCC2)c1 [METAPHIT METHANESULFONATE],AC50,[2],7.36 µM (active)
c1ccc(-c2ccc([C@@H]3[C@@H]4CN(Cc5cccnc5)C[C@H]3N4)cc2)cc1,AC50,[3],0.472 µM (active)
same,AC50,[4],9.31 µM (active)
COc1cccc(CN2CC3(C2)CN(C(=O)Nc2ccc(F)cc2)[C@@H](CO)c2c3c3ccc(OC)cc3n2C)c1,AC50,[3],2.98 µM (active)
same,AC50,[4],11.8 µM (active)
C[C@@H]1CN([C@H](C)CO)C(=O)Cc2cc(NC(=O)Cc3cn(C)c4ccccc34)ccc2O[C@H]1CN(C)Cc1ccc(-c2ccccc2)cc1,AC50,[1],4.23 µM (active)
C[N+]1(CC(=O)NNc2c3ccccc3nc3ccccc23)CCOCC1,AC50,[5],2.83 µM (active)
C[C@H](CO)N1C[C@H](C)[C@H](CN(C)C(=O)Nc2cccc3ccccc23)Oc2c(NC(=O)Nc3ccc(C(F)(F)F)cc3)cccc2C1=O,AC50,[1],6.42 µM (active)
C1CCCCCC(NCCN2CCNCC2)CCCCC1,AC50,[5],23.1 µM (active)
COc1ccc(S(=O)(=O)Nc2ccc3c(c2)C(=O)N([C@H](C)CO)C[C@@H](C)[C@@H](CN(C)Cc2ccc(C(F)(F)F)cc2)OCCCC[C@H](C)O3)cc1,AC50,[6],3.43 µM (active)
same,AC50,[7],5.6 µM (active)
COc1cccc(/C=N/Nc2ccnc(O)n2)c1O,EC50,[8],> 112 µM (not active)
same,EC50,[9],10.7 µM (active)
same,IC50,[10],10.6 µM (active)
same,AC50,[11],0.67 µM (active)
CCN(CCCNS(=O)(=O)c1cc(-c2cc(C)no2)ccc1C)Cc1ccccc1,EC50,[12],0.299 µM (active)
C#Cc1cccc(C(=O)NC2CCCN(C3Cc4ccccc4C3)C2)c1 (stereo not drawn),EC50,[12],0.596 µM (active)
C[C@H](CO)N1C[C@H](C)[C@H](CN(C)C(=O)Nc2ccc(F)cc2)Oc2c(NC(=O)Nc3cccc4ccccc34)cccc2C1=O,AC50,[1],1.79 µM (active)
NCCCC[C@@H]1NC(=O)c2cc([N+](=O)[O-])cc(F)c2NCCCC[C@@H](C(N)=O)NC(=O)[C@H](CCC(N)=O)NC1=O,IC50,[13],> 20 µM (inactive)
same,AC50,[5],8.88 µM (active)
COC(=O)C1=C(c2ccc(OCc3ccccc3)cc2)C[C@@H]2CC[C@H]1N2C(=O)NC1CCN(Cc2ccccc2)CC1,CC50,[14],17.6 µM (active)
same,IC50,[13],> 20 µM (inactive)
same,AC50,[11],3.96 µM (active)
O=C(CN1C(=O)C2CCCCC2C1=O)Nc1nc(-c2ccccn2)cs1 (stereo not drawn),EC50,[15],> 120 µM (not active)
same,EC50,[16],14.3 µM (active)
same,EC50,[17],> 120 µM (not active)
same,IC50,[10],16 µM (active)
CCN1C(NCc2ccc(OC)cc2)=N[C@@H](CCc2ccccc2)[C@H](C(=O)NCc2ccc(OC)cc2)[C@H]1C,IC50,[13],> 20 µM (inactive)
COc1ccccc1S(=O)(=O)N(C)C[C@@H]1Oc2cc(C#CCC(C)C)ccc2S(=O)(=O)N([C@@H](C)CO)C[C@H]1C,AC50,[18],0.521 µM (active)
same,AC50,[19],> 100 µM (inactive)
same,AC50,[3],0.652 µM (active)
same,AC50,[20],0.609 µM (active)
same,AC50,[21],0.331 µM (active)
CC(CN1CCCC(C(N)=O)C1)c1ccccc1 (stereo not drawn),EC50,[12],1.19 µM (active)
Cc1ccc(-c2ccc([C@@H]3[C@@H]4CN(Cc5cccnc5)C[C@H]3N4)cc2)cc1,AC50,[3],0.457 µM (active)
same,AC50,[4],9.99 µM (active)
COc1ccc(CNn2c(C)nc3ccccc3c2=O)cc1,IC50,[13],> 20 µM (inactive)
same,AC50,[22],25.1 µM (inconclusive)
Cc1ccc(NS(=O)(=O)c2cc([N+](=O)[O-])ccc2NNC(=S)Nc2cccc(Cl)c2)c(C)c1,IC50,[23],5.74 µM (not active)
same,IC50,[10],17 µM (active)
CCOc1ccccc1C1CC(c2ccc(Cl)cc2)Nc2nc(N)nn21 (stereo not drawn),EC50,[12],11.9 µM (active)
C[C@H]1CN([C@@H](C)CO)C(=O)c2cccc(NC(=O)c3nc4ccccc4s3)c2O[C@H]1CN(C)C(=O)Nc1ccc(C(F)(F)F)cc1,AC50,[1],3.86 µM (active)
CC(N)Cc1c[nH]c2cc3c(cc12)OCCO3 (stereo not drawn),EC50,[12],1.33 µM (active)
CC(CC(=O)c1ccc(F)cc1)N1CCN(c2ccccc2)CC1 (stereo not drawn),AC50,[5],34.3 µM (active)
Cc1cc2ccccc2n1CCNC(=O)C(C)Oc1ccccc1 (stereo not drawn),EC50,[24],0.705 µM (active)
same,EC50,[25],13.8 µM (active)
same,IC50,[10],64.6 µM (active)
O=[N+]([O-])c1ccc(N=Nc2ccc(O)c3ccccc23)cc1,IC50,[10],25.9 µM (active)
COc1ccc(CN(C)C[C@@H]2OCCCC[C@@H](C)Oc3ccc(NC(=O)Nc4ccc(C(F)(F)F)cc4)cc3C(=O)N([C@H](C)CO)C[C@@H]2C)cc1,AC50,[1],2.48 µM (active)
COc1ccc2nc(NN=C(C)c3ccccn3)cc(C)c2c1,IC50,[10],7.94 µM (active)
COc1cccc(NC(=O)N2[C@H](CO)[C@H](c3ccccc3)[C@H]2CNCC(C)C)c1,AC50,[18],1.35 µM (active)
same,AC50,[19],85.6 µM (active)
same,AC50,[3],1.78 µM (active)
same,AC50,[20],0.974 µM (active)
same,AC50,[21],1.26 µM (active)
CC1CN(C(=O)CCC(=O)NCCCN2CCC(Cc3ccccc3)CC2)c2cc(Cl)ccc2O1 (stereo not drawn),IC50,[13],> 20 µM (inactive)
same,AC50,[2],16.2 µM (active)
